pEC50: −log10 of the molar value.
Key:
human CYP11B1 = target: T1, human CYP11B1 (Homo sapiens, UniProt P15538); test: G-402 cellular enzyme assay, human CYP11B1 (cortisol release, HTRF); type: cell-based; conditions: G-402 cells, 1 μM Deoxycortisol
T1 construct: expressed in transfected cells
T1 sequence (P15538 25-503): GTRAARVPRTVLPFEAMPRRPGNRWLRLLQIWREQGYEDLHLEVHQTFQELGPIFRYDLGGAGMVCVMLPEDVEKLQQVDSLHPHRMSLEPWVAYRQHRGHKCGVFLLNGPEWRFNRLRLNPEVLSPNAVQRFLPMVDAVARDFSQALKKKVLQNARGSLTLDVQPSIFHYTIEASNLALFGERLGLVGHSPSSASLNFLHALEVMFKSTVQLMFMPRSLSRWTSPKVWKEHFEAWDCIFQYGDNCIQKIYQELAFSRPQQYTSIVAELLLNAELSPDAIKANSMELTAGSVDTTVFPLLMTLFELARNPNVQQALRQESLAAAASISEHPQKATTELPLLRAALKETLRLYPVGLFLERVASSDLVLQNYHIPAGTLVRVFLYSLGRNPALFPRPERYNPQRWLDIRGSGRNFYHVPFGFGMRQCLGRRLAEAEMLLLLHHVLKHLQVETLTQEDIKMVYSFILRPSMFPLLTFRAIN
Summary of the method: (§1)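 G-402 cells stably expressing human CYP11B1 or CYP11B2, in DMEM/F12 with 2.5% charcoal-treated FCS, were incubated 16 h with test compound and substrate (1 μM 11-deoxycortisol for CYP11B1; 1 μM deoxycorticosterone for CYP11B2). Cortisol or aldosterone in supernatant was quantified by HTRF; EC50 from 4-parameter MMF fit.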

human CYP11B2 = target: T2, human CYP11B2 (Homo sapiens, UniProt P19099); test: G-402 cellular enzyme assay, human CYP11B2 (aldosterone release, HTRF); type: cell-based; conditions: G-402 cells, 1 μM Deoxycorticosterone
T2 construct: expressed in transfected cells
T2 sequence (P19099 25-503): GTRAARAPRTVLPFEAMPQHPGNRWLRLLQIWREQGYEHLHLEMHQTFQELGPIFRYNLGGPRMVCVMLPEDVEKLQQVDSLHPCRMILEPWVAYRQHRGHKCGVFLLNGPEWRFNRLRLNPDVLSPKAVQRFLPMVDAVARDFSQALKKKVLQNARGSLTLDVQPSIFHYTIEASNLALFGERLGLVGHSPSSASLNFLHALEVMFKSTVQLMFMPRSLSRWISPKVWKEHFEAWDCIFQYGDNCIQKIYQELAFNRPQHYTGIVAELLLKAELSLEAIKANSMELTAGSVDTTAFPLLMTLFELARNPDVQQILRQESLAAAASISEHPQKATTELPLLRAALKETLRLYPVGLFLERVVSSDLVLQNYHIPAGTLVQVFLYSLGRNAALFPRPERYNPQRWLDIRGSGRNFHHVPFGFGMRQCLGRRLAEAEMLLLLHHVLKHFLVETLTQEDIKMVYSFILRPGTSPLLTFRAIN
Summary of the method: as §1

Row | pEC50 (human CYP11B1) | pEC50 (human CYP11B2) | Compound
1 | 5.04 | 6.65 | Cc1c(-c2cncc(N3CCc4cc(Cl)ccc4C3=O)c2)ncn1C [Example 417, 6-Chloro-2-[5-(1,5-dimethyl-1H-imidazol-4-yl)-pyridin-3-yl]-3,4-dihydro-2H-isoquinolin-1-one]
2 | 7.21 | 8.40 | Cn1nccc1-c1cncc(N2C(=O)c3ccc(Cl)cc3C2(C)C)c1 [Example 418, 5-Chloro-3,3-dimethyl-2-[5-(2-methyl-2H-pyrazol-3-yl)-pyridin-3-yl]-2,3-dihydro-isoindol-1-one]
3 | 6.91 | 8.04 | Cc1n[nH]cc1-c1cncc(N2CCc3cc(Cl)ccc3C2=O)c1 [Example 419, 6-Chloro-2-[5-(3-methyl-1H-pyrazol-4-yl)-pyridin-3-yl]-3,4-dihydro-2H-isoquinolin-1-one]
4 | 6.55 | 7.56 | Cc1cn[nH]c1-c1cncc(N2CCc3cc(Cl)ccc3C2=O)c1 [Example 420, 6-Chloro-2-[5-(4-methyl-2H-pyrazol-3-yl)-pyridin-3-yl]-3,4-dihydro-2H-isoquinolin-1-one]
5 | 7.49 | 9.15 | Cn1ncc(Cl)c1-c1cncc(N2CCc3cc(Cl)ccc3C2=O)c1 [Example 421, 6-Chloro-2-[5-(4-chloro-2-methyl-2H-pyrazol-3-yl)-pyridin-3-yl]-3,4-dihydro-2H-isoquinolin-1-one]
6 | 4.95 | 6.81 | Cc1cc(-c2cncc(N3CCc4cc(Cl)ccc4C3=O)c2)n(C)n1 [Example 422, 6-Chloro-2-[5-(2,5-dimethyl-2H-pyrazol-3-yl)-pyridin-3-yl]-3,4-dihydro-2H-isoquinolin-1-one]
7 | 5.99 | 7.20 | Cc1c(-c2cncc(N3CCc4cc(Cl)ccc4C3=O)c2)cnn1C [Example 423, 6-Chloro-2-[5-(1,5-dimethyl-1H-pyrazol-4-yl)-pyridin-3-yl]-3,4-dihydro-2H-isoquinolin-1-one]
8 | 6.85 | 8.21 | Cn1nccc1-c1cncc(N2CCc3cc(Cl)ccc3C2=O)c1Cl [Example 424, 6-Chloro-2-[4-chloro-5-(2-methyl-2H-pyrazol-3-yl)-pyridin-3-yl]-3,4-dihydro-2H-isoquinolin-1-one]
9 | 5.90 | 7.25 | Cn1nccc1-c1cncc(N2C(=O)c3ccc(Cl)nc3C2(C)C)c1 [Example 425, 2-Chloro-7,7-dimethyl-6-[5-(2-methyl-2H-pyrazol-3-yl)-pyridin-3-yl]-6,7-dihydro-pyrrolo[3,4-b]pyridin-5-one]
10 | 6.24 | 7.92 | COc1ccc2c(n1)C(C)(C)N(c1cncc(-c3ccnn3C)c1)C2=O [Example 426, 2-Methoxy-7,7-dimethyl-6-[5-(2-methyl-2H-pyrazol-3-yl)-pyridin-3-yl]-6,7-dihydro-pyrrolo[3,4-b]pyridin-5-one]
11 | 7.33 | 8.62 | Cn1ncc(Cl)c1-c1cncc(N2C(=O)c3ccc(Cl)cc3C2(C)C)c1 [Example 427, 5-Chloro-2-[5-(4-chloro-2-methyl-2H-pyrazol-3-yl)-pyridin-3-yl]-3,3-dimethyl-2,3-dihydro-isoindol-1-one]
12 | 6.13 | 8.16 | Cc1cccnc1C(=O)NCc1cncc(N2C(=O)c3ccc(Cl)cc3C2(C)C)c1 [Example 430, 3-Methyl-pyridine-2-carboxylic acid [5-(6-chloro-1,1-dimethyl-3-oxo-1,3-dihydro-isoindol-2-yl)-pyridin-3-ylmethyl]-amide]
13 | 6.04 | 7.35 | CC1(C)c2cc(Cl)ccc2C(=O)N1c1cncc(CNC(=O)c2ncccc2Cl)c1 [Example 431, 3-Chloro-pyridine-2-carboxylic acid [5-(6-chloro-1,1-dimethyl-3-oxo-1,3-dihydro-isoindol-2-yl)-pyridin-3-ylmethyl]-amide]
14 | 5.84 | 7.65 | Cn1ccnc1C(=O)NCc1cncc(N2C(=O)c3ccc(Cl)cc3C2(C)C)c1 [Example 432, 1-Methyl-1H-imidazole-2-carboxylic acid [5-(6-chloro-1,1-dimethyl-3-oxo-1,3-dihydro-isoindol-2-yl)-pyridin-3-ylmethyl]-amide]

— US9133158B2, “Bicyclic dihydroisoquinoline-1-one derivatives” (Hoffmann-La Roche Inc., priority 2011, dated 2015)
